Data published in ChEMBL document CHEMBL1131488, “Dihydropyrancarboxamides related to zanamivir: a new series of inhibitors of influenza virus sialidases. 1. Discovery, synthesis, biological activity, and structure-activity relationships of 4-guanidino- and 4-amino-4H-pyran-6-carboxamides” (J Med Chem, 1998).

Tests used:
[1] = molecular target: Neuraminidase (Influenza A virus (A/Puerto Rico/8/1934(H1N1)), UniProt P03468)
Neuraminidase [2] = molecular target: T1, Neuraminidase (Influenza B virus (strain B/Lee/1940), UniProt P03474)
T1 sequence (P03474 whole entry): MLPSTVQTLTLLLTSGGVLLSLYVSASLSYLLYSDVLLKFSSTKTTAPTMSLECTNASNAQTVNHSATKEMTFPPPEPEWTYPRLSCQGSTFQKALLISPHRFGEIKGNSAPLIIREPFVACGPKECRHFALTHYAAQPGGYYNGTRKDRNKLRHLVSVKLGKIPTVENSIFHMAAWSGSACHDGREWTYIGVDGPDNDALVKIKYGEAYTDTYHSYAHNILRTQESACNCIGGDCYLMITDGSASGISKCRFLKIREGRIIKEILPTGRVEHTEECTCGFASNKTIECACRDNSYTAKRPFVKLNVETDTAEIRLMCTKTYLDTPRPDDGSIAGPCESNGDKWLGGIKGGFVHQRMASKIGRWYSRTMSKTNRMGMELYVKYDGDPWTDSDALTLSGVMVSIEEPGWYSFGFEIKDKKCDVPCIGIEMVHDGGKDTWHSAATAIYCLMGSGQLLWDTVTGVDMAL

Neuraminidase [3] = molecular target: T1, Neuraminidase; test: Inhibition of influenza B virus sialidase activity
[4] = molecular target: Neuraminidase (Influenza A virus (A/Puerto Rico/8/1934(H1N1)), UniProt P03468); test: Inhibition of influenza A virus sialidase activity
[5] = molecular target: Neuraminidase (Influenza A virus (A/Puerto Rico/8/1934(H1N1)), UniProt P03468); test: Inhibition of sialidase (Flu A, 5 nM)
Neuraminidase [6] = molecular target: T1, Neuraminidase; remark: listed apart in the source
Neuraminidase [7] = molecular target: T1, Neuraminidase; test: Inhibitory activity against sialidase (influenza B virus by plaque reduction assay)
[8] = molecular target: Neuraminidase (Influenza A virus (A/Puerto Rico/8/1934(H1N1)), UniProt P03468); remark: listed apart in the source
[9] = Vss, volume of distribution at steady state at a dose of 50 mg/kg; type: ADME, organism-based; set-up: dose 50 mg/kg; conditions: in vivo, read-out: Vss
Mus musculus [10] = test: Compound was tested for in vivo efficacy in mouse model of influenza A virus A/Singapore/1/57 at dose of 1 mg/kg.; type: functional
[11] = molecular target: Neuraminidase (Influenza A virus (A/Puerto Rico/8/1934(H1N1)), UniProt P03468); remark: listed apart in the source
Mus musculus [12] = test: Compound was tested for concentration of intranasally administered drug (10 mg/kg) which reduces virus titer by 90%; type: functional; conditions: inhaled or nasal
[13] = t1/2, plasma elimination half life, the time taken for the plasma concentrations to fall by one half, once distribution is complete at a dose of 50 mg/kg; type: ADME, organism-based; set-up: dose 50 mg/kg
Mus musculus [14] = test: Compound was tested for in vivo efficacy in mouse model of influenza A virus A/Singapore/1/57 at dose of 10 mg/kg.; type: functional
[15] = molecular target: Neuraminidase (Influenza A virus (A/Puerto Rico/8/1934(H1N1)), UniProt P03468); remark: listed apart in the source
[16] = molecular target: Neuraminidase (Influenza A virus (A/Puerto Rico/8/1934(H1N1)), UniProt P03468); remark: listed apart in the source
[17] = Clp, plasma clearance at a dose of 50 mg/kg; type: ADME, organism-based; set-up: dose 50 mg/kg; conditions: read-out: Clp
Mus musculus [18] = test: Compound was tested for in vivo efficacy in mouse model of influenza A virus A/Singapore/1/57 at dose of 50 mg/kg.; type: functional

Chain of Neuraminidase (Influenza A virus (A/Puerto Rico/8/1934(H1N1)), UniProt P03468) (P03468 whole entry): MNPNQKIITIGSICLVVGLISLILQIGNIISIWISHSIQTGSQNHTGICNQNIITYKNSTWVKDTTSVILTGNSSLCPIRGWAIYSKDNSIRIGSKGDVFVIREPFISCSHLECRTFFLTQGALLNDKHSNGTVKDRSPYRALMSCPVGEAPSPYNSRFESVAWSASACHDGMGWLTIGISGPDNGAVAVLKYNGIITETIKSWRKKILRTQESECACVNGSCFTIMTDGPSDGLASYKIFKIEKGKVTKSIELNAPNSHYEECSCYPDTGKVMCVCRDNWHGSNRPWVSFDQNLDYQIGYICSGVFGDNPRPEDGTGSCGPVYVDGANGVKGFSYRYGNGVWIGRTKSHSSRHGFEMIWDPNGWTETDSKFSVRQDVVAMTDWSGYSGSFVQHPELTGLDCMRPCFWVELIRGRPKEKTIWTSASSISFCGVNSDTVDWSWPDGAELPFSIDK

Compound: CC(=O)N[C@@H]1[C@@H](N)C=C(C(=O)O)O[C@H]1C(=O)N1C(C)CCN1C (stereo not given in full)
- IC50 [1]: 52 nM
- IC50 (Neuraminidase [2]): 20000 nM
- IC50 (Neuraminidase [3]): 13000 nM
- IC50 [4]: 210 nM

Compound: CC(=O)N[C@@H]1[C@@H](N)C=C(C(=O)O)O[C@H]1C(=O)NCCO
- IC50 [5]: 420000 nM

Compound: CC(=O)N[C@@H]1[C@@H](N)C=C(C(=O)O)O[C@H]1C(=O)N(CCN=[N+]=[N-])CCc1ccccc1
- IC50 [1]: 9 nM
- IC50 (Neuraminidase [2]): 28000 nM

Compound: CC(=O)N[C@@H]1[C@@H](N)C=C(C(=O)O)O[C@H]1C(=O)NC1CCCCC1
- IC50 [5]: 19000 nM
- IC50 (Neuraminidase [6]): > 450000 nM

Compound: CC(=O)N[C@@H]1[C@@H](N)C=C(C(=O)O)O[C@H]1C(=O)N(CCCO)CCc1ccccc1
- IC50 (Neuraminidase [3]): > 360000 nM
- IC50 [4]: 3000 nM

Compound: CC(=O)N[C@@H]1[C@@H](N)C=C(C(=O)O)O[C@H]1C(=O)N(CCO)CCc1ccccc1
- IC50 (Neuraminidase [3]): 100000 nM
- IC50 [4]: 12 nM

Compound: CC(=O)N[C@@H]1[C@@H](N)C=C(C(=O)O)O[C@H]1C(=O)N1CCCC1C (stereo not given in full)
- IC50 (Neuraminidase [3]): 210000 nM
- IC50 [4]: 310 nM

Compound: CC(=O)N[C@@H]1[C@@H](N)C=C(C(=O)O)O[C@H]1C(=O)N(CCc1ccccc1)CC(C)C
- IC50 [4]: 14 nM

Compound: CC(=O)N[C@@H]1[C@@H](N)C=C(C(=O)O)O[C@H]1C(=O)N(CCN)CCc1ccccc1
- IC50 (Neuraminidase [3]): 260000 nM
- IC50 [4]: 47000 nM

Compound: CC(=O)N[C@@H]1[C@@H](N)C=C(C(=O)O)O[C@H]1C(=O)N1CCCC1
- IC50 (Neuraminidase [7]): > 100 µg/mL
- IC50 [4]: 2900 nM

Compound: CCCN(CCc1cccc(O)c1)C(=O)[C@@H]1OC(C(=O)O)=C[C@H](N)[C@H]1NC(C)=O
- IC50 (Neuraminidase [3]): 2300 nM
- IC50 [4]: 3 nM

Compound: C=CCN(CC=C)C(=O)[C@@H]1OC(C(=O)O)=C[C@H](N)[C@H]1NC(C)=O
- IC50 [5]: 40 nM
- IC50 (Neuraminidase [6]): 8400 nM

Compound: CC(=O)N[C@@H]1[C@@H](N)C=C(C(=O)O)O[C@H]1C(=O)NCC(=O)O
- IC50 [5]: > 480000 nM

Compound: CCCN(CCc1ccc(O)cc1)C(=O)[C@@H]1OC(C(=O)O)=C[C@H](N)[C@H]1NC(C)=O
- IC50 (Neuraminidase [3]): 1900 nM
- IC50 [4]: 9 nM

Compound: CCCN(CCc1ccc(Cc2ccccc2)cc1)C(=O)[C@@H]1OC(C(=O)O)=C[C@H](N)[C@H]1NC(C)=O
- IC50 (Neuraminidase [3]): 5200 nM
- IC50 [4]: 270 nM

Compound: CCC1CCC(CC)N1C(=O)[C@@H]1OC(C(=O)O)=C[C@H](N)[C@H]1NC(C)=O (stereo not given in full)
- IC50 (Neuraminidase [3]): 26000 nM
- IC50 [4]: 290 nM

Compound: CCCN(CCC)C(=O)[C@@H]1OC(C(=O)O)=C[C@H](N)[C@H]1NC(C)=O
- IC50 [8]: 30 nM
- Vd [9]: 0.4 L/kg
- Reduction in virus titer (Mus musculus [10]): 82%
- IC50 [11]: 20 nM
- ED90 (Mus musculus [12]): 2.1 mg/kg
- half-life [13]: 21 min
- Reduction in virus titer (Mus musculus [14]): 99.84%
- IC50 [15]: 8 nM
- IC50 [16]: 3 nM
- clearance [17]: 12.5 mL/min/kg

Compound: CCCN(C)C(=O)[C@@H]1OC(C(=O)O)=C[C@H](NC(=N)N)[C@H]1NC(C)=O
- IC50 [8]: 26 nM
- Vd [9]: 0.3 L/kg
- Reduction in virus titer (Mus musculus [10]): 95%
- IC50 [11]: 28 nM
- ED90 (Mus musculus [12]): < 1 mg/kg
- half-life [13]: 12.6 min
- Reduction in virus titer (Mus musculus [14]): 99.9%
- IC50 [15]: 5.6 nM
- Reduction in virus titer (Mus musculus [18]): 74.5%
- IC50 [16]: 3 nM
- clearance [17]: 17.8 mL/min/kg

Compound: CCN(CC)C(=O)[C@@H]1OC(C(=O)O)=C[C@H](N)[C@H]1NC(C)=O
- IC50 [8]: 85 nM
- IC50 [11]: 20 nM
- IC50 [15]: 40 nM
- IC50 (Neuraminidase [3]): 360 nM
- IC50 [16]: 5 nM

Compound: CC(=O)N[C@@H]1[C@@H](NC(=N)N)C=C(C(=O)O)O[C@H]1C(=O)NCCN
- IC50 [5]: 20000 nM

Compound: CCCN(CCc1ccc(OC)cc1)C(=O)[C@@H]1OC(C(=O)O)=C[C@H](N)[C@H]1NC(C)=O
- IC50 (Neuraminidase [3]): 3300 nM
- IC50 [4]: 8 nM
